Among the data in patent US9090600B2, “Fungicidal 4-substituted-3-{phenyl[(heterocyclylmethoxy)imino]methyl}-1,2,4-oxadizol-5(4H)-one derivatives” (BAYER INTELLECTUAL PROPERTY GMBH, priority 2011, dated 2015) are chromatographic logP, Eff. % and LogP values, retold here.

A short description of data set [1]: Measurement of log P values by HPLC on reversed phase columns (EEC directive 79/831 Annex V.A8). As to conditions: for chromatographic logP: pH 2.7; for LogP: method [a], HPLC on reversed phase columns.
Data set [2] concerns Phytophthora infestans. Format: in vivo. The note with it: tomato, preventive spray, 100 ppm of active ingredient, evaluated 7 days after inoculation.
Another data set relates to Plasmopara viticola. As to the kind of experiment: Plasmopara test (grapevines)/preventive. In kind it is in vivo. As to conditions: preventive spray, 10 ppm of active ingredient, evaluated 6 days after inoculation. In a few lines: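 Young grapevines sprayed preventively with compound formulated in acetone/dimethylacetamide with emulsifier, diluted in water, then inoculated with P. viticola spores after drying. Held 1 day at ~20 °C/100% RH, 4 days in greenhouse at ~21 °C/~90% RH, then misted for 1 day. Efficacy scored 6 days post-inoculation (0% = untreated control, 100% = no disease).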

For data set [3], the system named is Phytophthora infestans. In kind it is in vivo. The note with it: tomato plants, spray, 500 ppm, grading 5 days after contamination.
Data set [4] relates to Mycosphaerella graminicola. As to the kind of experiment: In vivo test on Mycosphaerella graminicola (wheat leaf spot). The note with it: wheat plants, spray, 500 ppm, grading 21 to 28 days after contamination. As for the experimental part: The active ingredients tested are prepared by homogenization in a mixture of acetone/tween/DMSO, then diluted with water to obtain the desired active material concentration.
Wheat plants (Scipion variety), sown on a 50/50 peat soil-pozzolana substrate in starter cups and grown at 22° C. (12 h)/20° C. (12 h), are treated at the 1-leaf stage (10 cm tall) by spraying with the aqueous suspension described above. Plants, used as controls, are treated with an aqueous solution not containing the active material.
After 24 hours, the plants are contaminated by spraying them with an aqueous suspension of cryopreserved Mycosphaerella graminicola spores (500.000 spores per ml). The contaminated wheat plants are incubated for 72 hours at 18° C. and at 100% relative humidity, and then for 21 to 28 days at 90% relative humidity.
Grading (% of efficacy) is carried out 21 to 28 days after the contamination, in comparison with the control plants.
(§1) Under these conditions, good (at least 70%) or total protection is observed at a dose of 500 ppm with the following compounds: […]

For data set [5] the following is noted: pH 2.7.
A further data set concerns Puccinia recondita. As to the kind of experiment: In vivo test on Puccinia recondita (brown rust). The note with it: wheat plants, spray, 500 ppm, grading 10 days after contamination. As for the experimental part:
The active ingredients tested are prepared by homogenization in a mixture of acetone/tween/DMSO, then diluted with water to obtain the desired active material.
Wheat plants (Scipion variety) sown on 50/50 peat soil-pozzolana substrate in starter cups and grown at 22° C. (12 h)/20° C. (12 h), are treated at the 1-leaf stage (10 cm tall) by spraying with the aqueous suspension described above.
Plants, used as controls, are treated with an aqueous solution not containing the active material. After 24 hours, the plants are contaminated by spraying the leaves with an aqueous suspension of Puccinia recondite spores (100.000 spores per ml). The spores are collected from a 10-day-old contaminated wheat and are suspended in water containing 2.5 ml/l of tween 80 10%. The contaminated wheat plants are incubated for 24 hours at 20° C. and at 100% relative humidity, and then for 10 days at 20° C. and at 70% relative humidity. Grading is carried out 10 days after the contamination, in comparison with the control plants.
as §1

Where two headings read alike, the source gives them in different places. Marks after values point to notes of the source that are not given here.

In the case of `Cn1c(/C(=N\OCc2cccc(N)n2)c2ccccc2)noc1=O` [Example 1, 3-[(Z)-{[(6-aminopyridin-2-yl)methoxy]imino}(phenyl)methyl]-4-methyl-1,2,4-oxadiazol-5(4H)-one], the chromatographic logP in data set [1] came to 1.14.

The compound `Cn1c(/C(=N\OCc2csc(N)n2)c2ccccc2)noc1=O` [Example 4, 3-[(Z)-{[(2-amino-1,3-thiazol-4-yl)methoxy]imino}(phenyl)methyl]-4-methyl-1,2,4-oxadiazol-5(4H)-one] gave a chromatographic logP in data set [1] of 1.54.

Consider `C=CCCCOC(=O)Nc1cccc(CO/N=C(/c2ccccc2)c2noc(=O)n2C)n1` [Example 6], for which the Eff. % in the data set with Phytophthora infestans [2] stood at 98%; in the data set with Plasmopara viticola, 100%. In addition, the LogP in data set [1] was 4.06 [a].

For `CCCCOC(=O)Nc1nc(CO/N=C(/c2ccccc2)c2noc(=O)n2C)cs1` [Example 14, butyl {4-[({[(Z)-(4-methyl-5-oxo-4,5-dihydro-1,2,4-oxadiazol-3-yl)(phenyl)methylene]amino}oxy)methyl]-1,3-thiazol-2-yl}carbamate], the Eff. % in the data set on Phytophthora infestans [2] is recorded as 95%; with Plasmopara viticola, 96%. Also, the chromatographic logP in data set [1] was determined as 3.73.

As for `Nc1cccc(CO/N=C(/c2ccccc2)c2noc(=O)[nH]2)n1` [Example 23, 3-[(Z)-{[(6-aminopyridin-2-yl)methoxy]imino}(phenyl)methyl]-1,2,4-oxadiazol-5(4H)-one], the chromatographic logP in data set [1] amounted to 1.36.

Regarding `Nc1nc(CO/N=C(/c2ccccc2)c2noc(=O)[nH]2)cs1` [Example 24, 3-[(Z)-{[(2-amino-1,3-thiazol-4-yl)methoxy]imino}(phenyl)methyl]-1,2,4-oxadiazol-5(4H)-one], in data set [1], the chromatographic logP was determined as 1.58.

`Cn1c(/C(=N/OCc2cccc(N)n2)c2ccccc2)noc1=O` [Example 25, 3-[(E)-{[(6-aminopyridin-2-yl)methoxy]imino}(phenyl)methyl]-4-methyl-1,2,4-oxadiazol-5(4H)-one] returned a chromatographic logP in data set [1] of 1.14.

Take `C#CCCCCC(=O)Nc1cccc(CO/N=C(/c2ccccc2)c2noc(=O)n2C)n1` [Example 37]: the results for the Eff. % in the data set on Plasmopara viticola and in the data set with Phytophthora infestans [3] were 80% and 100%, respectively. In data set [1], the LogP was 3.37 [a].

Turning to `Cn1c(/C(=N\OCc2cccc(NC(=O)C3(C)CCCCC3)n2)c2ccccc2)noc1=O` [Example 40], in data set [1], the LogP is 4.36 [a]. The compound also registered an Eff. % in the data set with Phytophthora infestans [3] of 100%.

For `COc1cccc(C(=O)Nc2cccc(CO/N=C(/c3ccccc3)c3noc(=O)n3C)n2)c1` [Example 44], the Eff. % with Plasmopara viticola was 98%; with Phytophthora infestans [3], 100%. The LogP in data set [1] is 3.62 [a].

As for `Cn1c(/C(=N\OCc2cccc(NC(=O)C(c3ccccc3)c3ccccc3)n2)c2ccccc2)noc1=O` [Example 46], in data set [1], the LogP is 4.48 [a].

With `Cn1c(/C(=N\OCc2csc(NC(=O)c3ccccc3Cl)n2)c2ccccc2)noc1=O` [Example 57], the Eff. % in data set [4] stood at 79%; in the data set with Phytophthora infestans [3], 85%. Further, the LogP in data set [5] is 3.46 [a].

Consider `Cn1c(/C(=N\OCc2cccc(NC(=O)CCC3CCCCC3)n2)c2ccccc2)noc1=O` [Example 77], for which the results for the Eff. % (in data set [4]; in the data set on Phytophthora infestans [3]) were 71% and 100%, respectively. The LogP in data set [5] is 4.73 [a].

Regarding `COc1cccc(/C(=N/OCc2cccc(N)n2)c2noc(=O)n2C)c1` [Example 108], the Eff. % amounted to 71% in data set [4] and 100% in the data set with Phytophthora infestans [3]. The LogP in data set [5] is 1.32 [a].

With `CCn1c(/C(=N\OCc2cccc(NC(=O)C3COc4ccccc4O3)n2)c2ccccc2)noc1=O` (stereo not drawn) [Example 130], the Eff. % in data set [4] worked out at 86%; with Phytophthora infestans [3] it was 100%. Further, in data set [5], the LogP was 4.14 [a].

Regarding `COc1cccc(CCOC(=O)Nc2cccc(CO/N=C(/c3ccccc3)c3noc(=O)n3C)n2)c1` [Example 151], the figures for the Eff. % (in data set [4]; with Phytophthora infestans [3]) were 92% and 85%, respectively. In addition, the LogP in data set [5] is 4.11 [a].

Take `Cn1c(/C(=N\OCc2csc(NC(=O)c3ccccc3I)n2)c2ccccc2)noc1=O` [Example 158]: the Eff. % in data set [4] is given as 80%; in the data set on Phytophthora infestans [3], 85%. For the same compound, in data set [5], the lipophilicity (LogP) is 3.6 [a].

Turning to `CCCC(C)C(=O)Nc1cccc(CO/N=C(/c2ccccc2)c2noc(=O)n2CC)n1` (stereo not drawn) [Example 172], the Eff. % in data set [4] is 86%; with Phytophthora infestans [3], 100%; with Puccinia recondita it was 89%. Besides, the LogP in data set [5] was 4.06 [a].

As for `Cn1c(/C(=N\OCc2cccc(NC(=O)CC(C)(C)C)n2)c2ccccc2)noc1=O` [Example 173], the Eff. % with Plasmopara viticola is reported as 86%; in data set [4], 73%; in the data set on Phytophthora infestans [3] it was 100%; in the data set on Puccinia recondita, 89%. In addition, the LogP in data set [5] is 3.78 [a].

With `C#CCCC(C)OC(=O)Nc1cccc(CO/N=C(/c2ccccc2)c2noc(=O)n2CC)n1` (stereo not drawn) [Example 207], the Eff. % is given as 79% in data set [4] and 100% in the data set with Phytophthora infestans [3]. Further, the LogP in data set [5] is 4.04 [a].

Consider `CCCC(C)C(=O)Nc1cccc(CON=C(c2ccccc2)c2noc(=O)n2C)n1` (stereo not drawn) [Example 248], for which the Eff. % is 85% with Plasmopara viticola, 86% in data set [4] and 100% in the data set with Phytophthora infestans [3]. The lipophilicity (LogP) in data set [5] was 3.8 [a].

As for `Cn1c(/C(=N\OCc2cccc(NCCC3CCCCC3)n2)c2ccccc2)noc1=O` [Example 253, 3-[(Z)-[({6-[(2-cyclohexylethyl)amino]pyridin-2-yl}methoxy)imino](phenyl)methyl]-4-methyl-1,2,4-oxadiazol-5(4H)-one], the chromatographic logP in data set [1] was 2.96.

Consider `CCn1c(C(=NOCc2cccc(NC(=O)OCCc3ccccc3)n2)c2ccccc2)noc1=O` [Example 270], for which the results for the Eff. % (in data set [4]; in the data set on Phytophthora infestans [3]) were 86% and 100%, respectively. Further, the LogP in data set [5] is 4.41 [a].

The compound `Cn1c(/C(=N\OCc2cccc(N(CCC3CCCCC3)C(=O)OC(C)(C)C)n2)c2ccccc2)noc1=O` [Example 279, tert-butyl (2-cyclohexylethyl){6-[({[(Z)-(4-methyl-5-oxo-4,5-dihydro-1,2,4-oxadiazol-3-yl)(phenyl)methylene]amino}oxy)methyl]pyridin-2-yl}carbamate] yielded a chromatographic logP in data set [1] of 6.73.

Consider `Cn1c(/C(=N\OCc2cccc(NC(=O)Cc3ccccc3)n2)c2ccccc2)noc1=O` [Example 341], for which the figures for the Eff. % (in data set [4]; in the data set on Phytophthora infestans [3]) were 70% and 100%, respectively. For the same compound, the lipophilicity (LogP) in data set [5] is 3.53 [a].

As to `CCCCC(=O)Nc1cccc(CO/N=C(/c2cccc(C)c2)c2noc(=O)n2C)n1` [Example 384], the Eff. % is 70% in data set [4], 100% with Phytophthora infestans [3] and 79% in the data set on Puccinia recondita. Also, in data set [5], the log partition coefficient (LogP) was 3.83 [a].

In data set [1], `NC(=N\O)/C(=N\OCc1csc(N)n1)c1ccccc1` [Example V-2, (1Z,2Z)-2-{[(2-amino-1,3-thiazol-4-yl)methoxy]imino}-N′-hydroxy-2-phenylethanimidamide] registered a chromatographic logP of 0.43.

`N/C(=N\O)C(=NOCc1cccc(N)n1)c1ccccc1` [Example V-3, (Z)-2-{[(6-aminopyridin-2-yl)methoxy]imino}-N′-hydroxy-2-phenylethanimidamide] came in with a chromatographic logP in data set [1] of 0.41.

`Cn1c(C(=O)c2ccccc2)noc1=O` [VII-1, 3-benzoyl-4-methyl-1,2,4-oxadiazol-5(4H)-one]: the chromatographic logP in data set [1] was 3.21.
